Measured values taken from PMC5597618, “Identification and characterization of the novel reversible and selective cathepsin X inhibitors” (Scientific Reports, 2017).
Read-outs that look alike come from different tables or passages of the source.

How the values were obtained:
[1] = biological target: cathepsin X; settings: cited from earlier work
[2] = biological target: T1, Cathepsin B (endopeptidase a.) (Homo sapiens, UniProt P07858); test: Ki against cathepsin B endopeptidase activity (Z-RR-AMC); assay type: biochemical; settings: SigmaPlot at 3 different substrate concentrations; pH 6.0
T1 construct: made in house; host or cells: E. coli
Procedure: (§1) Recombinant or native human cathepsins were used: recombinant cathepsin X and cathepsin S were expressed in Pichia pastoris, recombinant cathepsins B and L in E. coli, [43], native cathepsin H was isolated from human liver. Assay buffers for determining activities of cathepsins X and L consisted of 100 mM sodium acetate buffer, pH 5.5, for cathepsins H, S and B (endopeptidase activity) of 100 mM phosphate buffer pH 6.8, 6.5 and 6.0, respectively and for cathepsin B (exopeptidase activity) of 60 mM acetate buffer pH 5.0. Each assay buffer contained 0.01% Triton X-100 to prevent false positive inhibition due to aggregation of compounds[45], 5 mM cysteine, 1.5 mM EDTA and 0.1% PEG 8000. Enzymes were activated at 37 °C for 5 min before the assays.
(§2) Ki was determined by measuring the initial rate of hydrolysis at three different substrate concentrations (Supplementary Table S2) in the presence of seven different compound concentrations (0, 20, 40, 60, 80, 100 and 200 μM). 90 μL of the activated cathepsin was added to a black 96-well plate with 5 μL of the substrate and 5 μL of the compound. Formation of the fluorescent degradation product was monitored continuously at 460 nm ± 10 nm with excitation at 380 nm ± 20 nm (for AMC substrates) and, as noted above for Abz substrates, at 37 °C. All measurements were performed twice and in duplicate. The resulting data were analyzed by non-linear regression using the software SigmaPlot®, Enzyme Kinetics Module™ 1.3 and were fitted to the equation v = v max [S]/([S] (1 + [I]/αK i ) + K m (1 + [I]/K i )) (first group of compounds). For Ki determination against cathepsin X for the compounds from the second group, progress curves in the absence and presence of each putative inhibitor were fitted to the reaction mechanism presented in Fig. 3b. In this case the resulting data as well as reactivation curves were fitted to the equation system presented in Fig. 3c using ENZO application. For calculation of kinetic parameters from reaction progress curves the fluorescence coefficient for conversion of arbitrary fluorescence units to concentration was first determined. The fluorescence coefficient was calculated as the slope from the plot of initial substrate concentration vs. height of the plateau of the progress curve after complete hydrolysis of increasing concentrations of substrate, using linear regression.
(§3) Supplementary Table S2. Substrates used for the various cathepsins and their concentrations […]
(§4) Enzyme Substrate Concentration (µM) Reference/Company cathepsin X Abz-FEK(Dnp)-OH 3.25, 6.5, 13 Puzer et al.3 cathepsin B - endopept. Z-RR-AMC 60, 180, 360 Bachem cathepsin B - exopept. Abz-GIVRAK(Dnp)-OH 1, 3, 6 Bachem cathepsin S Z-VVR-AMC 0.5, 1, 1.5 Biomol cathepsin L Z-FR-AMC 0.5, 1, 4 Bachem cathepsin H Z-R-AMC 20, 80, 160 Biomol […]

[3] = biological target: T2, Cathepsin B (exopeptidase a.) (Homo sapiens, UniProt P07858); test: Ki against cathepsin B exopeptidase activity (Abz-GIVRAK(Dnp)-OH); assay type: biochemical; settings: SigmaPlot at 3 different substrate concentrations; pH 5.0
T2 construct: made in house; host or cells: E. coli
Procedure: as §1, §2, §3, §4

[4] = biological target: T3, Cathepsin L (Homo sapiens, UniProt P07711); test: Ki against cathepsin L (Z-FR-AMC); assay type: biochemical; settings: SigmaPlot at 3 different substrate concentrations; pH 5.5
T3 construct: made in house; host or cells: E. coli
Procedure: as §1, §2, §3, §4

[5] = biological target: T4, Cathepsin H (Homo sapiens, UniProt P09668); test: Ki against cathepsin H (Z-R-AMC); assay type: biochemical; settings: SigmaPlot at 3 different substrate concentrations; pH 6.8
T4 construct: native cathepsin H was isolated from human liver; from tissue; host or cells: human liver
Procedure: as §1, §2, §3, §4

[6] = biological target: T5, Cathepsin S (Homo sapiens, UniProt P25774); test: Ki against cathepsin S (Z-VVR-AMC); assay type: biochemical; settings: SigmaPlot at 3 different substrate concentrations; pH 6.5
T5 construct: made in house; host or cells: Pichia pastoris
Procedure: as §1, §2, §3, §4

[7] = test system: PC-3 cells; test: Real time cell migration assay (xCELLigence, CIM plates); assay type: cell-based, human; settings: 10 μM, compound in upper and bottom compartments, vs DMSO; for inhibition at 10 µM: Homo sapiens, PC-3
Procedure: (§5) Human prostate cancer cell line PC-3 cells (obtained from ATCC, Manassas, USA; ATCC Number: CRL-1435) were cultured in F-12 (Gibco) and Advanced DMEM (Gibco) (1:1) with 10% FBS, 1% penicillin/streptomycin and 1% L-glutamine. Rat pheochromocytoma PC-12 cells (obtained from ATCC, Manassas, USA; ATCC Number: CRL-1721) were cultured in Advanced DMEM (Gibco) with 5% FBS, 10% heat-inactivated horse serum, 1% penicillin/streptomycin and 1% L-glutamine.
Cell migration assay was performed on a Real-Time Cell Analyzer Dual Plate (RTCA DP) Instrument, xCELLigence System (ACEA Biosciences). CIM plates were coated with fibronectin (10 μg/ml, BD Biosciences) on the down and upper side of the microporous PET membrane for 30 min at room temperature and 2 hours at 37 °C, respectively. Excess fibronectin was removed and wells washed with phosphate buffer saline (PBS). Compounds (10 μM) were added to the complete media (lower chambers) or serum-free media (upper chambers). 0.1% DMSO was used as a control. 2 × 10^4 cells were plated per well. In additional experimental setting, inhibitors were added only to the upper chambers 3 hours after experiment started in order to measure their impact only on the cell migration and not the adhesion. Impedance data, reported as cell index, were measured continuously every 15 min for 72 hours and then analyzed with the RTCA Software (ACEA Biosciences, Inc.). Results are normalized to cells treated with DMSO.

[8] = biological target: T6, cathepsin X in lysates of PC-3 cells (Homo sapiens, UniProt Q9UBR2); test: Cathepsin X activity in PC-3 cell lysates; assay type: cell-based; settings: 10 μM
T6 construct: endogenous in cells; host or cells: PC-3
Procedure: To detect cathepsin X activity in cell lysates, 95 μL of activated cell lysates (0.2 mg/mL total protein in assay buffer) were added to a black 96-well plate containing 5 μL of the substrate. The further procedure was the same as above. In some experiments lysates of non-treated cells were pre-incubated with 10 μM of compounds for 30 minutes and then activity was measured as described above.
For testing the enzyme activity in cell lysates, cells were treated with 10 μM of compounds. After 24 hours lysates were prepared in 50 mM Na acetate buffer pH 5.5 with 1 mM EDTA, 100 mM NaCl and 0.25% Triton X-100. Total protein concentration was determined by DC Protein Assay (Bio Rad) according to the instructions.

[9] = biological target: T7, cathepsin X (Homo sapiens, UniProt Q9UBR2); test: Determination of Ki values and inhibition mechanism against cathepsin X (Abz-FEK(Dnp)-OH substrate); assay type: biochemical; parameters: made in house; host or cells: Pichia pastoris; settings: for Inhibition mechanism: ENZO
Procedure: as §1, §2, §3, §4

[10] = biological target: T7, cathepsin X; test: Determination of relative inhibition of cathepsin X; assay type: biochemical; parameters: made in house; host or cells: Pichia pastoris
Procedure: as §1
Abz-FEK(Dnp)-OH was used as cathepsin X specific substrate in activity assays. 90 μL of activated cathepsin X (20 nM) was added to a black 96-well plate with 5 μL of substrate (3.25 μM final concentration) and 5 μL of the compound (50 μM final concentration). The reaction was monitored continuously at 420 nm ± 10 nm with excitation at 320 nm ± 20 nm and at 37 °C. Relative inhibition (%) was calculated with the equation (1 − v i/v 0) × 100, where v i is reaction velocity in the presence of the compound and v 0 is reaction velocity without the compound.

[11] = test system: PC-12 cells; test: Neurite outgrowth assay; assay type: cell-based, rat; settings: 10 µM; 48 h; vs DMSO control
Procedure: as §5
PC-12 cells were seeded in 96-well plates (4 × 10^4/well) coated with poly-L-lysine. Next day, the cells were treated with compounds (10 µM) in serum-free medium, and neurite outgrowth was measured after 48 h using Neurite Outgrowth Staining Kit (Molecular Probes), in accordance with the manufacturer’s instructions. Fluorescence intensity was measured at 525 nm with excitation at 483 nm for cell viability indicator and at 567 nm with excitation at 554 nm for cell membrane indicator. Results, expressing increased neurite outgrowth, were normalized to cells treated with DMSO.

[12] = biological target: T7, cathepsin X; test: Reversibility of binding: washout experiment and dilution method; assay type: biochemical; parameters: made in house; host or cells: Pichia pastoris
Procedure: The reversibility of binding was determined in two separate experiments. In the washout experiment[47] 20 nM cathepsin X was mixed with a saturating level of the inhibitor (100 μM) and incubated for 1 hour at room temperature. One half of the reaction mixture was assayed for activity and the other half was diluted approximately 200000-fold with assay buffer prior to the activity assay. Step-wise dilution and concentration was performed on a Centricon (Millipore) with 10 kDa cut-off. In the dilution method[19] cathepsin X (5 μM) was incubated with inhibitor (100 μM). Half the reaction mixture was diluted 100-fold with the assay buffer containing substrate and immediately assayed for activity, the other half was incubated for 2 hours, diluted 100-fold and then assayed for activity.

[13] = second group, progress curve analysis with ENZO
[14] = screening at 50 μM compound, read-out: relative inhibition of cathepsin X
[15] = second group, 50 μM compound, 1 h preincubation, read-out: % inhibition (1 h preincubation)
[16] = first group, SigmaPlot non-linear regression at 3 different substrate concentrations

T5 sequence (P25774 115-331): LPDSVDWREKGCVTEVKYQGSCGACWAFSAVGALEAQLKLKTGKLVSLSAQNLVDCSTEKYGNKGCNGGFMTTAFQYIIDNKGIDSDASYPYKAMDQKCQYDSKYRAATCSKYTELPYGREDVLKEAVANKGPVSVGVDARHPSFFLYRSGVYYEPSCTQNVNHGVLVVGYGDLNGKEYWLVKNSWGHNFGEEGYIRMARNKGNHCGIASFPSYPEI
T3 sequence (P07711 114-333): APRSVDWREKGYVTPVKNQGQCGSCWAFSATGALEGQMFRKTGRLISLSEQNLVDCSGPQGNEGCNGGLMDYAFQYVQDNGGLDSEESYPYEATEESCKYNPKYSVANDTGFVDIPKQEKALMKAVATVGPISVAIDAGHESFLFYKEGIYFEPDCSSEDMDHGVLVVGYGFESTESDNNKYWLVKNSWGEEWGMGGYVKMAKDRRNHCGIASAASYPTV
T7 sequence (Q9UBR2 62-303): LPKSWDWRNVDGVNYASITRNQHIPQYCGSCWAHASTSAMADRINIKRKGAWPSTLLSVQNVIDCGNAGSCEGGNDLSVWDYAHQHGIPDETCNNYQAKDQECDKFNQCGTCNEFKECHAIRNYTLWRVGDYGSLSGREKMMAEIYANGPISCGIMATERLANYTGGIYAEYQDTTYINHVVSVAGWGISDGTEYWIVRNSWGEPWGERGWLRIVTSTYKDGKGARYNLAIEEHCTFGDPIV
T4 sequence (P09668 116-335 limits assumed, other chains not shown): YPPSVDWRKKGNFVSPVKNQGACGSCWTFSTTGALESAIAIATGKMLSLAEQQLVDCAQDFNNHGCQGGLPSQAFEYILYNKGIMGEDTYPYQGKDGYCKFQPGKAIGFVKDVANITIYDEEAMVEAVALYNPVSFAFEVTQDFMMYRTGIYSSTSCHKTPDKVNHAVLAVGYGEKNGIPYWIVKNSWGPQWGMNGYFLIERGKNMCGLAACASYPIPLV
T6 sequence (Q9UBR2 62-303): as the sequence (Q9UBR2 62-303) above

SMILES | kinact/Ki [1] [M^–1s^–1] | preference for cathepsin X over cathepsins B or L [1] [fold] | Ki [2] [µM] | Ki [3] [µM] | Ki [4] [µM] | Ki [5] [µM] | Ki Cathepsin S [6] | inhibition of PC-3 cell migration [7] | inhibition of cathepsin X enzyme activity in lysates of PC-3 cells [8] | Inhibition mechanism ([9]; second group) | Ki [9, 13] [µM] | inhibition at 50 µM [10, 14] [%] | inhibition at 50 µM [10, 15] [%] | Ki Cathepsin L [4] | inhibition at 10 µM [7] [%] | increase of neurite outgrowth [11] | cathepsin X activity after washout ([12]; 1-hour pre-incubation, 100 μM inhibitor, 200000-fold dilution, 10 kDa cut-off) | enzyme activity recovered after 100-fold rapid dilution ([12]; dilution method, cathepsin X 5 μM, inhibitor 100 μM) | Ki [6] [µM] | Ki [9, 16] [µM]
CCCNC(=O)C1OC1C(=O)NC(C(=O)O)C(C)CC (stereo not drawn) [nPrNH-(2 S,3 S)tEps-Ile-OH] | 225 | 10 |  |  |  |  |  |  |  |  |  |  |  |  |  |  |  |  |  | 
Cn1cnc(SCC(=O)c2ccc3c(c2)OCCO3)n1 [Compound 12, 1-(2,3-Dihydrobenzo[b][1,4]dioxin-6-yl)-2-((1-methyl-1H-1,2,4-triazol-3-yl)thio)ethanone] |  |  | > 500 | 120.5 ± 0.9 | > 500 | > 500 | n.i. | failed to affect cell migration | trend toward less potent inhibition | competitive | 5.88 ± 0.21 | > 70 | 82 |  |  |  |  |  |  | 
Cc1ccccc1-n1cnnc1SCC(=O)c1ccc2c(c1)OCCO2 [Compound 20, 1-(2,3-Dihydrobenzo[b][1,4]dioxin-6-yl)-2-((4-(o-tolyl)-4H-1,2,4-triazol-3-yl)thio)ethan-1-one] |  |  | 301 ± 214 | 83.1 ± 7 |  | > 500 | n.i. |  |  | competitive | 8.78 ± 0.39 | > 70 | 79 | n.i. | 15 to 30 | statistically significant increase |  |  |  | 
CC(C)C[C@H](NC(=O)[C@H]1O[C@@H]1C(=O)O)C(=O)NCCCCN=C(N)N [Compound E-64] | 775 |  |  |  |  |  |  |  |  |  |  |  |  |  |  |  | retained cathepsin X inhibition | remained inhibited |  | 
Nc1nc(SCC(=O)c2ccc3c(c2)OCCO3)n[nH]1 [Compound 2, 2-((5-Amino-1H-1,2,4-triazol-3-yl)thio)-1-(2,3-dihydrobenzo[b][1,4]dioxin-6-yl)ethanone] |  |  | 392 ± 121 | 210 ± 11 | 902 ± 89.7 | 483.1 ± 0.6 |  |  |  |  |  | 60 to 75 |  |  | 15 to 30 | statistically significant increase |  |  | 463 ± 42.9 | 29.2 ± 2.44
Cc1[nH]c2ccccc2c1C(=O)CSc1n[nH]c(N)n1 [Compound 1, 2-((5-Amino-1H-1,2,4-triazol-3-yl)thio)-1-(2-methyl-1H-indol-3-yl)ethanone] |  |  | > 1000 | 371 ± 97.9 | 975 ± 101 | 1870 ± 240 |  | failed to affect cell migration | trend toward less potent inhibition |  |  | 60 to 75 |  |  |  |  |  |  | > 1000 | 38.4 ± 0.2
